Assay results reported in US20220009910A1, “TYROSINE KINASE 2 INHIBITORS, PREPARATION METHODS AND MEDICINAL USES THEREOF” (Eternity Bioscience Inc., priority 2020, published 2022).

What was measured:
Tyk2 JH2 Pseudokinase = target: T1, Tyk2 JH2 Pseudokinase (Homo sapiens, UniProt P29597); assay: KdELECT Competition Binding Assay; details: 11-point 3-fold dilution series, qPCR readout
T1 construct: purchased Eurofins DiscoverX Corporation (CRO); host or cells: E. coli BL21-derived (T7 phage) or HEK-293
T1 sequence (P29597 589-875 limits assumed): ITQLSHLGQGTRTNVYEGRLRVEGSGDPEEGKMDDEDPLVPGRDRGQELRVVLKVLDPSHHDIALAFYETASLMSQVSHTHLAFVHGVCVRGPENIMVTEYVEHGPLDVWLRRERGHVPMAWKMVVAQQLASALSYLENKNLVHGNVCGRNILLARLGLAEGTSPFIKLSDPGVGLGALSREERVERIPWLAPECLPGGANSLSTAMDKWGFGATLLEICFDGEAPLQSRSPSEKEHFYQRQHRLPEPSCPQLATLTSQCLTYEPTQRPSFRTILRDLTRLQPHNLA
Experimental: The KdELECT Competition Binding Assay is performed by a CRO, Eurofins DiscoverX Corporation following the established standard protocol (DiscoverX, San Diego, Calif.). Briefly, Kinase-tagged T7 phage strains were prepared in an E. coli host derived from the BL21 strain. E. coli were grown to log-phase and infected with T7 phage and incubated with shaking at 32° C. until lysis. The lysates were centrifuged and filtered to remove cell debris. The remaining kinases were produced in HEK-293 cells and subsequently tagged with DNA for qPCR detection. Streptavidin-coated magnetic beads were treated with biotinylated small molecule ligands for 30 minutes at room temperature to generate affinity resins for kinase assays. The liganded beads were blocked with excess biotin and washed with blocking buffer (SeaBlock (Pierce), 1% BSA, 0.05% Tween 20, 1 mM DTT) to remove unbound ligand and to reduce nonspecific binding. Binding reactions were assembled by combining kinases, liganded affinity beads, and test compounds in 1× binding buffer (20% SeaBlock, 0.17×PBS, 0.05% Tween 20, 6 mM DTT). Test compounds were prepared as 111-fold stocks in 100% DMSO. Kds were determined using an 11-point 3-fold compound dilution series with three DMSO control points. All compounds for Kd measurements are distributed by acoustic transfer (non-contact dispensing) in 100% DMSO. The compounds were then diluted directly into the assays such that the final concentration of DMSO was 0.9%. All reactions performed in polypropylene 384-well plate. Each was a final volume of 0.02 mL. The assay plates were incubated at room temperature with shaking for 1 hour and the affinity beads were washed with wash buffer (1×PBS, 0.05% Tween 20). The beads were then re-suspended in elution buffer (1×PBS, 0.05% Tween 20, 0.5 μM non-biotinylated affinity ligand) and incubated at room temperature with shaking for 30 minutes. The kinase concentration in the eluates was measured by quantitative PCR.
Compound Handling: An 11-point 3-fold serial dilution of each test compound was prepared in 100% DMSO at 100-fold final test concentration and subsequently diluted to 1-fold in the assay (final DMSO concentration=1%). Most Kds were determined using a compound top concentration=30,000 nM. If the initial Kd determined was <0.5 nM (the lowest concentration tested), the measurement was repeated with a serial dilution starting at a lower top concentration.

[1] = test system: Tyk2-mediated, IL23-induced STAT3 phosphorylation in human Kit225 T cell line; assay: IL-23_Kit225 T Cell Assay (phosphorylated-STAT3, AlphaLISA); type: cell-based; details: Kit225 cells, compound 1 hour, human recombinant IL-23 20 minutes, pSTAT3
Experimental: (§1) Kit225 cells (licensed from Professor Toshiyuki Hori, Ritsumeikan University, Japan) were seeded in 384-well plate at a density of 1×10^5 cells/well in 4 μL Hank's Balanced Salt Solution (HBSS, Gibco), and incubated for 2 hours in a humidified, 5% CO2 cell culture incubator at 37° C. The cells were treated with serial diluted compounds for 1 hour and stimulated with human recombinant IL-23 (R&D Systems) for 20 minutes. The treated cells were then lysed and cellular phosphorylated-STAT3 levels were measured by AlphaLISA (PerkinElmer) according to the manufacture's instructions. Inhibition data were calculated by comparison to vehicle control wells for 0% inhibition and non-stimulated control wells for 100% inhibition. Dose response curves were then generated to determine the concentration required to suppress 50% of cellular response (IC50) as derived by non-linear regression analysis using GraphPad Prism.

[2] = test system: Tyk2-mediated, IFNα-induced STAT1 phosphorylation in human Kit225 T cell line; assay: IFNα_Kit225 T Cell Assay (phosphorylated-STAT1, AlphaLISA); type: cell-based; details: Kit225 cells, compound 1 hour, human recombinant IFNα 20 minutes, pSTAT1; read-out: IFN-α Kit225 (IC50)
Experimental: as §1, with “cells” for “cells (licensed from Professor Toshiyuki Hori, Ritsumeikan University, Japan)”, “0.5×10^5” for “1×10^5”, “HBSS,” for “Hank's Balanced Salt Solution (HBSS, Gibco),”, “IFNα (Biolegend)” for “IL-23 (R&D Systems)”, “phosphorylated-STAT1” for “phosphorylated-STAT3”, “manufacturer's” for “manufacture's”

[3] = test system: experimental autoimmune disease models (psoriasis, SLE, and IBD); details: cited from earlier work
[4] = test system: IL-12/IL-23 and Type I IFN pathways; details: Tokarski et al. 2015; cited from earlier work

Row | Kd (Tyk2 JH2 Pseudokinase) [nM] | IC50 [1] [nM] | IC50 [2] [nM] | Compound | in vivo efficacy in experimental autoimmune disease models [3] | block of IL-12/IL-23 and Type I IFN pathways [4]
1 | 0.0035 | 57 | 43 | [2H]C([2H])([2H])NC(=O)c1nnc(NC(=O)C2CC2)cc1Nc1cc(N2CC(OC)C2)cc(-c2ncn(C)n2)c1OC [Example A1, 6-(cyclopropanecarboxamido)-4-((2-methoxy-5-(3-methoxyazetidin-1-yl)-3-(1-methyl-1H-1,2,4-triazol-3-yl)phenyl)amino)-N-(methyl-d3)pyridazine-3-carboxamide] |  | 
2 | 0.004 | 88 | 50 | CNC(=O)c1nnc(NC(=O)C2CC2)cc1Nc1cc(N2CC(OC)C2)cc(-c2ncn(C)n2)c1OC [Example A2, 6-(cyclopropanecarboxamido)-4-((2-methoxy-5-(3-methoxyazetidin-1-yl)-3-(1-methyl-1H-1,2,4-triazol-3-yl)phenyl)amino)-N-methylpyridazine-3-carboxamide] |  | 
3 | 0.037 | 130 | 410 | [2H]C([2H])([2H])NC(=O)c1nnc(NC(=O)C2CC2)cc1Nc1cc(OC2COC2)cc(-c2ncn(C)n2)c1OC [Example A4, 6-(cyclopropanecarboxamido)-4-((2-methoxy-3-(1-methyl-1H-1,2,4-triazol-3-yl)-5-(oxetan-3-yloxy)phenyl)amino)-N-(methyl-d3)pyridazine-3-carboxamide] |  | 
4 | 0.0071 | 9.7 | 7.5 | [2H]C([2H])([2H])NC(=O)c1nnc(NC(=O)C2CC2)cc1Nc1cc(N2CCC2=O)cc(-c2ncn(C)n2)c1OC [Example A3, 6-(cyclopropanecarboxamido)-4-((2-methoxy-3-(1-methyl-1H-1,2,4-triazol-3-yl)-5-(2-oxoazetidin-1-yl)phenyl)amino)-N-(methyl-d3)pyridazine-3-carboxamide] |  | 
5 |  |  |  | BMS986165 | substantial in vivo efficacy | effectively block
